Results reported in ChEMBL document CHEMBL5331129, “Discovery of NAFLD-Improving Agents by Promoting the Degradation of Keap1” (J Med Chem, 2023).
The source made the active and inactive calls. The rule behind the calls is not given here.

Assays:
[1] = test system: Mus musculus; experiment: Antioxidant activity against MCD diet-induced oxidative stress in C57Bl/6 mouse model of NAFLD assessed as increase in GSH level in liver at 0.5 to 2 mg/kg,ip administrated for 4 weeks; format: functional, organism-based; details: dose 0.5-2 mg/kg
[2] = Cardiotoxicity in zebrafish at 10 uM observed at 48 hrs post fertilization; format: toxicity, Danio rerio
[3] = test system: AML12; experiment: Antioxidant activity against free fatty acid induced oxidative stress in mouse AML12 cells assessed as decrease in ROS level at 0.125 to 0.5 uM incubated for 24 hrs; format: functional, cell-based; details: dose 0.125-0.5 µM
[4] = test system: AML12; experiment: Antioxidant activity against free fatty acid induced oxidative stress in mouse AML12 cells assessed as reduction in intracellular lipid accumulation at 0.5 uM incubated for 24 hrs by Oil Red O staining based microscopic analysis; format: functional, cell-based
[5] = test system: Mus musculus; experiment: Antioxidant activity against MCD diet-induced oxidative stress in C57Bl/6 mouse model of NAFLD assessed as reduction of hepatic steatosis in liver at ip administrated for 4 weeks by hematoxylin and eosin staining based assay; format: functional, organism-based
[6] = Toxicity in C57BL/6 mouse assessed as change in body weight at 2 mg/kg,ip qd administrated for 4 weeks; format: organism-based; details: in vivo, 672 h
[7] = molecular target: Protein cereblon/Kelch-like ECH-associated protein 1 (Mus musculus, UniProt Q8C7D2+Q9Z2X8); experiment: PROTAC activity at CRBN/Keap1 in mouse AML12 cells assessed as reduction of Keap1 protein incubated for 24 hrs by Western blotting analysis; format: cell-based
Chain of Protein cereblon/Kelch-like ECH-associated protein 1 (Q9Z2X8 whole entry): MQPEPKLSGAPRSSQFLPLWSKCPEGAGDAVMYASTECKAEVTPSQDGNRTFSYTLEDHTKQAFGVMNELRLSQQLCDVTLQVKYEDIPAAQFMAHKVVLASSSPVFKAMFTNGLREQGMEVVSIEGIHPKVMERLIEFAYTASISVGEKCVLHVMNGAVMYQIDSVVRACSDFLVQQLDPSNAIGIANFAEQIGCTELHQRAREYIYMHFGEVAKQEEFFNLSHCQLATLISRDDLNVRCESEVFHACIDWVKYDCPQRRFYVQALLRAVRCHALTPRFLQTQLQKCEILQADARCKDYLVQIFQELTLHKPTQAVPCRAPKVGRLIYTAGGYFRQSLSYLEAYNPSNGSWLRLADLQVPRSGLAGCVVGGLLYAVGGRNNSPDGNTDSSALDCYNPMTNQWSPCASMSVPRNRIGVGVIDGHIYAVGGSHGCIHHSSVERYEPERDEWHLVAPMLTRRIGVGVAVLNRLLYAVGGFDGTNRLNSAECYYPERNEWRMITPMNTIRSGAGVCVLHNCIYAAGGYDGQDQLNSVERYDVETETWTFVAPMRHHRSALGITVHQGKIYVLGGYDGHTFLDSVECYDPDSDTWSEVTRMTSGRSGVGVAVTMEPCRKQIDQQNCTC
Chain of Protein cereblon/Kelch-like ECH-associated protein 1 (Q8C7D2 whole entry): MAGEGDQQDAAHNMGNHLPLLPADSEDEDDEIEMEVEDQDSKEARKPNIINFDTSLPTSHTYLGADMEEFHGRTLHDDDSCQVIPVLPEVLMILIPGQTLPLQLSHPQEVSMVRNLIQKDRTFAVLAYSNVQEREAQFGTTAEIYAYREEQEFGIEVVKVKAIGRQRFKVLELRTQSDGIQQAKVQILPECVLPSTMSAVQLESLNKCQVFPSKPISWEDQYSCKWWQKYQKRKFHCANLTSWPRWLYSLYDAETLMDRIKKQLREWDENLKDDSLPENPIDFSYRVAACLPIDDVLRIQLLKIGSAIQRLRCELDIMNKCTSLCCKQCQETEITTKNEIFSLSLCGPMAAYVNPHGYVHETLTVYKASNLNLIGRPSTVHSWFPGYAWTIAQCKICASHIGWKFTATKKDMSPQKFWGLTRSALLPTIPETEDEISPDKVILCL

[8] = test system: AML12; experiment: Antioxidant activity against free fatty acid induced oxidative stress in mouse AML12 cells assessed as downregulation of Keap1 protein expression level at 0.125 to 0.5 uM incubated for 24 hrs by immunoblot analysis; format: functional, cell-based; details: dose 0.125-0.5 µM
[9] = test system: Mus musculus; experiment: Antioxidant activity against MCD diet-induced oxidative stress in C57Bl/6 mouse model of NAFLD assessed as upregulation of liver Nrf2 protein expression level at 0.5 to 2 mg/kg,ip administrated for 4 weeks by immunoblot analysis; format: functional, organism-based; details: dose 0.5-2 mg/kg
[10] = test system: Mus musculus; experiment: Antioxidant activity against MCD diet-induced oxidative stress in C57Bl/6 mouse model of NAFLD assessed as reduction of serum aminotransferase level at 0.5 to 2 mg/kg,ip administrated for 4 weeks; format: functional, organism-based; details: dose 0.5-2 mg/kg
[11] = test system: Mus musculus; experiment: Antioxidant activity against MCD diet-induced oxidative stress in C57Bl/6 mouse model of NAFLD assessed as downregulation of liver Keap1 protein expression level at 0.5 to 2 mg/kg,ip administrated for 4 weeks by immunohistochemical staining assay; format: functional, organism-based; details: dose 0.5-2 mg/kg
[12] = Acute toxicity in C57BL/6 mouse assessed as histopathological change in heart at 20 mg/kg,ip qd administrated for 3 consecutive days and measured on day 4 by hematoxylin and eosin staining based assay; format: organism-based; details: in vivo
[13] = test system: Mus musculus; experiment: Antioxidant activity against MCD diet-induced oxidative stress in C57Bl/6 mouse model of NAFLD assessed as increase in SOD level in liver at 0.5 to 2 mg/kg,ip administrated for 4 weeks; format: functional, organism-based; details: dose 0.5-2 mg/kg
[14] = test system: Mus musculus; experiment: Antioxidant activity against MCD diet-induced oxidative stress in C57Bl/6 mouse model of NAFLD assessed as reduction of pericellular fibrosis in liver at ip administrated for 4 weeks by Sirius red staining based analysis; format: functional, organism-based
[15] = test system: Mus musculus; experiment: Antioxidant activity against MCD diet-induced oxidative stress in C57Bl/6 mouse model of NAFLD assessed as increase in serum HDL-C level at ip administrated for 4 weeks; format: functional, organism-based
[16] = test system: AML12; experiment: Antioxidant activity against free fatty acid induced oxidative stress in mouse AML12 cells assessed as reduction in triglyceride level at 0.5 uM incubated for 24 hrs; format: functional, cell-based
[17] = Toxicity in C57BL/6 mouse assessed as histopathological change in liver at 2 mg/kg,ip qd administrated for 4 weeks by hematoxylin and eosin staining based assay; format: organism-based; details: in vivo, 672 h
[18] = molecular target: T1, Protein cereblon/Kelch-like ECH-associated protein 1 (Mus musculus) (UniProt Q9Z2X8+Q8C7D2); experiment: PROTAC activity at CRBN/Keap1 in mouse AML12 cells assessed as degradation of Keap1 protein at 0.5 to 2 uM incubated for 6 to 48 hrs by Western blotting analysis; format: cell-based; details: dose 0.5-2 µM, time 6-48 hrs, TDE = time-dependent effect
T1 sequence (Q8C7D2 whole entry, looked up): as the sequence (Q8C7D2 whole entry) above
T1 sequence (Q9Z2X8 whole entry, looked up): as the sequence (Q9Z2X8 whole entry) above

[19] = molecular target: T1, Protein cereblon/Kelch-like ECH-associated protein 1 (Mus musculus); experiment: PROTAC activity at CRBN/Keap1 in mouse AML12 cells assessed as degradation of Keap1 protein level at 1 uM preincubated with proteasome inhibitor, MG-132 followed by compound addition and incubated for 24 hrs by Western blotting analysis; format: cell-based
[20] = molecular target: T1, Protein cereblon/Kelch-like ECH-associated protein 1 (Mus musculus); experiment: PROTAC activity at CRBN/Keap1 in mouse AML12 cells assessed as degradation of Keap1 protein level at 1 uM preincubated with MLN-4924 followed by compound addition and incubated for 24 hrs by Western blotting analysis; format: cell-based
[21] = test system: Mus musculus; experiment: Antioxidant activity against MCD diet-induced oxidative stress in C57Bl/6 mouse model of NAFLD assessed as reduction of serum TC level at 0.5 to 2 mg/kg,ip administrated for 4 weeks; format: functional, organism-based; details: dose 0.5-2 mg/kg
[22] = test system: Mus musculus; experiment: Antioxidant activity against MCD diet-induced oxidative stress in C57Bl/6 mouse model of NAFLD assessed as decrease in liver ROS level at 0.5 to 2 mg/kg,ip administrated for 4 weeks by immunostaining analysis; format: functional, organism-based; details: dose 0.5-2 mg/kg
[23] = molecular target: Kelch-like ECH-associated protein 1 (Homo sapiens, UniProt Q14145); experiment: Binding affinity to Keap1 (unknown origin) assessed as dissociation constant incubated for 200 sec by sensor chip immobilization based surface plasmon resonance analysis
Chain of Kelch-like ECH-associated protein 1 (Q14145 whole entry): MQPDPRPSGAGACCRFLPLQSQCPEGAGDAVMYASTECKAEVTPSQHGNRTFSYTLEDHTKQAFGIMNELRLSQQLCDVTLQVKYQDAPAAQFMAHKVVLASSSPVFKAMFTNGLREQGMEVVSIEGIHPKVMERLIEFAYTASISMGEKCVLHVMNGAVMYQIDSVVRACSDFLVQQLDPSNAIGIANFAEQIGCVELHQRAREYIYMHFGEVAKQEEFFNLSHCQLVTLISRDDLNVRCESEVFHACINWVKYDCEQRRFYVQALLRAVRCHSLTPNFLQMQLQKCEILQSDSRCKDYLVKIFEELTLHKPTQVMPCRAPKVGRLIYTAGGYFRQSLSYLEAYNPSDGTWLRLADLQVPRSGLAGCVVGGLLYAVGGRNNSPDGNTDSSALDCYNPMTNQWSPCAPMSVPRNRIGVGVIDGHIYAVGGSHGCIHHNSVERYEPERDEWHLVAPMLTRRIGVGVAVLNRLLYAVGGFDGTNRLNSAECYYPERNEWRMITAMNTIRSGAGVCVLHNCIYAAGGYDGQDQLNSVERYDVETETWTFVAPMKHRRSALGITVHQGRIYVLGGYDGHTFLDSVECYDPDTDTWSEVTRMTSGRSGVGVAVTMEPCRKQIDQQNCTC

[24] = test system: Mus musculus; experiment: Antioxidant activity against MCD diet-induced oxidative stress in C57Bl/6 mouse model of NAFLD assessed as upregulation of liver NQO1 protein expression level at 0.5 to 2 mg/kg,ip administrated for 4 weeks by immunohistochemical staining assay; format: functional, organism-based; details: dose 0.5-2 mg/kg
[25] = test system: Mus musculus; experiment: Antioxidant activity against MCD diet-induced oxidative stress in C57Bl/6 mouse model of NAFLD assessed as reduction of serum LDL-C level at ip administrated for 4 weeks; format: functional, organism-based
[26] = test system: Mus musculus; experiment: Antioxidant activity against MCD diet-induced oxidative stress in C57Bl/6 mouse model of NAFLD assessed as upregulation of liver HO-1 protein expression level at 0.5 to 2 mg/kg,ip administrated for 4 weeks by immunohistochemical staining assay; format: functional, organism-based; details: dose 0.5-2 mg/kg
[27] = Toxicity in C57BL/6 mouse assessed as histopathological change in spleen at 2 mg/kg,ip qd administrated for 4 weeks by hematoxylin and eosin staining based assay; format: organism-based; details: in vivo, 672 h
[28] = test system: AML12; experiment: Antioxidant activity against free fatty acid induced oxidative stress in mouse AML12 cells assessed as upregulation of HO-1 protein expression level at 0.125 to 0.5 uM incubated for 24 hrs by immunoblot analysis; format: functional, cell-based; details: dose 0.125-0.5 µM
[29] = molecular target: T1, Protein cereblon/Kelch-like ECH-associated protein 1 (Mus musculus); experiment: PROTAC activity at CRBN/Keap1 in mouse AML12 cells assessed as degradation of Keap1 protein incubated for 6 to 48 hrs by Western blotting analysis; format: cell-based; details: time 6-48 hrs
[30] = test system: Mus musculus; experiment: Antioxidant activity against MCD diet-induced oxidative stress in C57Bl/6 mouse model of NAFLD assessed as downregulation of liver Keap1 protein expression level at 0.5 to 2 mg/kg,ip administrated for 4 weeks by immunoblot analysis; format: functional, organism-based; details: dose 0.5-2 mg/kg
[31] = test system: Mus musculus; experiment: Antioxidant activity against MCD diet-induced oxidative stress in C57Bl/6 mouse model of NAFLD assessed as reduction of serum ALT level at 0.5 to 2 mg/kg,ip administrated for 4 weeks; format: functional, organism-based; details: dose 0.5-2 mg/kg

## CC1(C)CC[C@]2(C(=O)NCCCCCNc3cccc4c3C(=O)N(C3CCC(=O)NC3=O)C4=O)CC[C@]3(C)[C@H](C(=O)C=C4C5(C)C=C(C#N)C(=O)C(C)(C)[C@@H]5CC[C@]43C)[C@@H]2C1 (single isomer, unassigned)
[1]
  Activity: Active
[2]
  Activity: Non-Toxic
[3]
  Activity: Active
[4]
  Activity: Active
[5]
  Activity: Dose-Dependent Effect
[6]
  Activity: Toxic
[7]
  IC50: 18.2 µM
[8]
  Activity: Active
[9]
  Activity: Dose-Dependent Effect
[10]
  Activity: Active
[11]
  Activity: Dose-Dependent Effect
[12]
  Activity: Toxic
[13]
  Activity: Active
[14]
  Activity: Dose-Dependent Effect
[15]
  Activity: Dose-Dependent Effect
[16]
  Activity: Active
[17]
  Activity: Non-Toxic
[18]
  Activity: Tde
[19]
  Activity: inactive
[20]
  Activity: inactive
[21]
  Activity: Active
[22]
  Activity: Active
[23]
  Kd: 11.9 µM
[24]
  Activity: Dose-Dependent Effect
[25]
  Activity: Dose-Dependent Effect
[26]
  Activity: Dose-Dependent Effect
[27]
  Activity: Non-Toxic
[28]
  Activity: Active
[29]
  Activity: Dose-Dependent Effect
[30]
  Activity: Dose-Dependent Effect
[31]
  Activity: Active
